Experimental data as given in paper PMC12728616, “Regioselective Glycosylation of Fluorine-18-Labeled Sorbitol for Enhanced Bacterial Detection In Vivo Using PET” (JACS Au, 2025).

Legend:
[1] = In vitro stability in serum; format: in vitro ADME, mouse; conditions: up to 120 min at 37 °C
K. pneumoniae = experiment: In vitro uptake of 18F-tracers by bacteria; format: cell-based, Klebsiella pneumoniae
Method: In vitro evaluation of ^18F-tracers was conducted according to our established procedure. Briefly, bacteria were incubated overnight at 37 °C, subcultured into a fresh medium at an initial OD600 of 0.05, and then allowed to reach the mid log phase (OD600 ∼ 0.4). The cultures were subsequently incubated with ^18F-tracers (final concentration: 0.1 MBq/mL) at 37 °C for 90 min. Subsequently, 300 μL aliquots of these cultures were centrifuged at 13,200 rpm for 6 min. The resulting pellets were washed with 300 μL of phosphate-buffered saline (PBS). The radioactivity of the pellets and supernatants was measured using a gamma counter. Uptake values were normalized to colony-forming units (CFUs).

[2] = In vitro stability in serum; format: in vitro ADME, human; conditions: up to 120 min at 37 °C
[3] = Dynamic PET/CT and ex vivo biodistribution in uninfected mice; conditions: for ex vivo residual activity in organs versus [18F]FDS: heart, lung, stomach, liver, intestine, kidney, muscle, after 90 min PET/CT; for peak uptake (Cmax) in bladder / peak uptake (Cmax) in kidneys / peak uptake (Cmax) in liver: dynamic PET 90 min; for elimination half-life (T1/2β) / plasma distribution half-life (T1/2α): blood pool TAC, two-compartment fit
Method: To assess the effect of [^18F]-FDS glycosylation on tissue uptake in vivo, we performed dynamic PET/CT scans for 90 min after the intravenous injection of [^18F]-FNT, [^18F]-FMT, and [^18F]-FDS in uninfected mice, followed by ex vivo analysis.
(§1) μPET/CT imaging was conducted using a nanoScan μPET/CT instrument (PET123S/CT1512, Mediso). Mice were anesthetized with 2% isoflurane/oxygen for intravenous administration of ^18F-tracers (∼5 MBq in 150 μL) via tail vein and maintained during data acquisition. PET data of uninfected mice were acquired in the list mode for 90 min, starting immediately after ^18F-tracer administration, followed by a CT scan. The PET data were reconstructed into three-dimensional volumes and coregistered with CT images using manufacturer-provided software in 53 dynamic frames (15 × 2 s, 6 × 5 s, 6 × 10 s, 4 × 30 s, 6 × 30 s, and 16 × 300 s). PET data of infected mice were acquired for 20 min, starting at 70 min postinjection of ^18F-tracer (mid time 80 min), followed by a CT scan. The list mode PET data were reconstructed into three-dimensional volumes in a single static frame. All PET scans were corrected for ^18F decay, dead time, and random coincidences and reconstructed into a 160 × 160 × 184 matrix with voxel size 0.8 mm using a three-dimensional ordered subject expectation maximization (OSEM) algorithm (40 iterations, 1 subset). Both attenuation and scatter corrections were applied to PET reconstructions using the coregistered CT. ROIs were drawn manually around the brain, lungs, liver, kidney, and urinary bladder using Amide software to generate image-derived TACs. For the estimation of blood pool radioactivity over time, ROIs were drawn on the left atrium. To estimate the plasma half-life of tracers, the TAC of the blood pool was fitted to a two-compartment model using a biexponential decay function: C t(t) = Ae ^–αt + Be ^ ‑βt , where C t(t) is the tracer concentration (% IDcc^–1) at time (t), A and B are the intercepts, and α and β are the distribution and elimination rate constants, respectively. , Quantitative uptake values are expressed as % IDcc^–1, representing the percent of the total injected dose per cubic centimeter. For the S. aureus myositis model, identical volume ROIs were drawn corresponding to the peak uptake of [^18F]-FNT at the live S. aureus inoculated site and heat-killed S. aureus inoculated site, respectively.

MRSA = experiment: PET/CT in MRSA myositis murine model; format: in vivo, mice; conditions: for ratio of live/heat-killed S. aureus inoculated sites, in vivo: PET 80 min postinjection (mid time)
Method: We next compared [^18F]-FNT and [^18F]-FMT PET in a S. aureus myositis model. […] To compare the in vivo detection sensitivity of [^18F]-FNT and [^18F]-FMT in a MRSA myositis model, we injected the left deltoid with live MRSA and the right deltoid with 10x heat-killed MRSA, respectively (Figure B).
All animal procedures were conducted in accordance with UCSF institutional guidelines and were approved by the Institutional Animal Care and Use Committee (IACUC). Female CBA/J mice (9 and 11 weeks old) were used for the study. Pulmonary infection and bacterial myositis models were established based on previously published protocols. , For pulmonary infection, 50 μL of K. pneumoniae (5 × 10^6 CFU) or 10× heat-killed K. pneumoniae were administered intranasally under anesthesia 24 h prior to imaging using PET. After PET scans, infected lungs were homogenized in PBS and plated on LB agar. Plates were incubated overnight at 37 °C to quantify the bacterial burden. […] Immediately following all imaging studies, target tissues were harvested, and radioactivity was measured using a gamma counter.
as §1

SMILES | in vitro stability in mouse serum [1] | in vitro uptake (K. pneumoniae) | in vitro stability in human serum [2] | ex vivo residual activity in organs versus [18F]FDS [3] | peak uptake (Cmax) in bladder ([3]; uninfected mice, i.v.) | peak uptake (Cmax) in kidneys ([3]; uninfected mice, i.v.) | peak uptake (Cmax) in liver ([3]; uninfected mice, i.v.) | elimination half-life (T1/2β) ([3]; uninfected mice) | plasma distribution half-life (T1/2α) ([3]; uninfected mice) | ratio of live/heat-killed S. aureus inoculated sites, in vivo (MRSA; MRSA myositis) | ratio of live/heat-killed S. aureus inoculated sites, ex vivo (MRSA; MRSA myositis, ex vivo analysis) | area under the curve (AUC0→90min) in bladder ([3]; uninfected mice, i.v.) | area under the curve (AUC0→90min) in liver ([3]; uninfected mice, i.v.) | uptake at heat-killed sites, dynamic PET (MRSA; by 70 min postinjection) | PET signal at live MRSA inoculated deltoid, 10^4 CFU (MRSA; inoculum 10^4 CFU, not significant vs uninfected controls (P = 0.2187)) | PET signal at sites inoculated with heat-killed MRSA (MRSA; static PET/CT 80 min postinjection (mid time))
OC[C@@H](O)[C@@H](O[C@H]1O[C@H](CO)[C@@H](O)[C@H](O)[C@H]1O)[C@H](O)[C@@H]([18F])CO [[18F]FMT, 2-deoxy-2-[18F]fluoro-D-maltitol] | intact | considerable uptake | intact | significantly lower residual activity | 562.7 ± 31.3 % IDcc^–1 | 102.3 ± 8.4 % IDcc^–1 | 17.7 ± 0.9 % IDcc^–1 | 12.70 min | 0.55 min | 6 fold | 2.7 fold |  |  |  |  | 
OC[C@@H](O)[C@@H](O)[C@H](O[C@H]1O[C@H](CO)[C@@H](O)[C@H](O)[C@H]1O)[C@@H]([18F])CO [[18F]FNT, 2-deoxy-2-[18F]fluoro-D-nigeritol] | intact | considerable uptake | intact | significantly lower residual activity | 606.8 ± 9.0 % IDcc^–1 | 104.5 ± 14.2 % IDcc^–1 | 19.2 ± 0.9 % IDcc^–1 | 14.07 min | 0.52 min | ~28 fold |  | 44418.3 ± 950.9 % IDcc^–1·min | 105.7 ± 4.0 % IDcc^–1·min | negligible | negligible signals | no detectable signal
